This is an account of results in patent publication US5750754A, “Heterocyclic compounds” (Zeneca Limited, priority 1993, dated 1998).

Molecules are shown by their SMILES. Structures can show the parent of a compound that is named as a salt.

For assay [1], the target named is T1, human, citrated, platelet-rich plasma (Homo sapiens, UniProt P05106+P08514).
T1 construct: aggregating human, citrated, platelet-rich plasma; endogenous in cells; host or cells: human platelets in citrated platelet-rich plasma
T1 sequence (P08514 32-887 limits assumed): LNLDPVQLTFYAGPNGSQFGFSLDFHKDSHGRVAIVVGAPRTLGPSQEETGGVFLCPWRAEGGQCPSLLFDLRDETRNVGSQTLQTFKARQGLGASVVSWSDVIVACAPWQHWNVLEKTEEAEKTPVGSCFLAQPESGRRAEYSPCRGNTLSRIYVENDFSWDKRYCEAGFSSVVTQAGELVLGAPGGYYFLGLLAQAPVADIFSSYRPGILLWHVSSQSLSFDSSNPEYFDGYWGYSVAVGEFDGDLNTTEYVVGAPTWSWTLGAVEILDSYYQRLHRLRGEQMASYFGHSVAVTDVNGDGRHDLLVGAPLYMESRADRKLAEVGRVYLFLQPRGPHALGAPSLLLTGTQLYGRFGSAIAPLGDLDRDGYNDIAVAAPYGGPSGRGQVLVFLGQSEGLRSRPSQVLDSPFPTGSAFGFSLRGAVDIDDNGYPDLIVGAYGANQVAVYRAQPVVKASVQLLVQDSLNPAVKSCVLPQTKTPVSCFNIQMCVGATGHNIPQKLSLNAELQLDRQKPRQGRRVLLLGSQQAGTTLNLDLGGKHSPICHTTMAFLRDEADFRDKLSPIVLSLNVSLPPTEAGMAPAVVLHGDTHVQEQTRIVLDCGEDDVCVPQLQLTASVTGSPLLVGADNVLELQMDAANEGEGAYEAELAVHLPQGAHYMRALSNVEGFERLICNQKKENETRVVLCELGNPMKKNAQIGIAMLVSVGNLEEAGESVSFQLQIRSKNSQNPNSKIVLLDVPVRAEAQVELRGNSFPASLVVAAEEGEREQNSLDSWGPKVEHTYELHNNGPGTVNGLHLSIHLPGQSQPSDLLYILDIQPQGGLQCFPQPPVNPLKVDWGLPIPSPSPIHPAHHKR
T1 sequence (P08514 891-1039 limits assumed): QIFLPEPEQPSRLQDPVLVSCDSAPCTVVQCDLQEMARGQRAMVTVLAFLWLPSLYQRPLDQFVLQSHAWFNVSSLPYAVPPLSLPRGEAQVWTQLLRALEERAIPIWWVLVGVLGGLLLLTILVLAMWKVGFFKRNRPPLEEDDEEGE
T1 sequence (P05106 27-788): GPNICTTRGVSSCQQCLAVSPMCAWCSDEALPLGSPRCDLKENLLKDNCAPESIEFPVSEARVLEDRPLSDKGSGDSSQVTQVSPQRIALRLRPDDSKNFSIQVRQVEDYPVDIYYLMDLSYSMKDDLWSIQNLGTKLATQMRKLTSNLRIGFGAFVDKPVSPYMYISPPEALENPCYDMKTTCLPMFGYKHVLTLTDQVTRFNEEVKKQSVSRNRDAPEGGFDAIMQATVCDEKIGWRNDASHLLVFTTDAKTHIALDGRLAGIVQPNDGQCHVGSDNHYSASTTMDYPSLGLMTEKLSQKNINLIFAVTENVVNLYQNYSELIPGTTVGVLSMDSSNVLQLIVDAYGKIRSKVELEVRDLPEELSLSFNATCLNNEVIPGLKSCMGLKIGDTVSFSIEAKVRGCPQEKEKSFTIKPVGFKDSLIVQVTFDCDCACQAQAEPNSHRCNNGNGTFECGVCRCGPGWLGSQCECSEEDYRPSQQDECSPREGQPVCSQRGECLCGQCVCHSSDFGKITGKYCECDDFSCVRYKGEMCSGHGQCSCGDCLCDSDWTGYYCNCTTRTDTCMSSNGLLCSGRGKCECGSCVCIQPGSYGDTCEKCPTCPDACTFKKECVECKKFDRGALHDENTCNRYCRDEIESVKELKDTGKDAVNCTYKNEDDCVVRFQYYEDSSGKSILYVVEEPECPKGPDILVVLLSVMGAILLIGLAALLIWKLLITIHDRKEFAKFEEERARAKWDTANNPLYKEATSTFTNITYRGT
In words: Test (a): inhibition of ADP stimulated platelet aggregation (Born). It is filed as cell-based. Particulars: ADP induced aggregation of human platelet-rich plasma; read-out: Test (a): pA2 value indicating potency of platelet aggregation inhibition (converted). The source says:
(i) aggregating human, citrated, platelet-rich plasma by addition of adenosine diphosphate so as to generate a dose-response curve;
(ii) generating a dose-response curve for ADP stimulated platelet aggregation in the presence of increasing amounts of a test compound (generally in the range 10-^5 M to 10-^10 M); and
(iii) calculating a pA2 value indicating potency of platelet aggregation inhibition for the test compound, averaged over several concentrations, from the calculated 50% response value for ADP aggregation in the presence and absence of the test compound.

Assay [2] has as its target T2, purified human platelet fibrinogen receptor (GPIIb/IIIa) (Homo sapiens, UniProt P05106+P08514).
T2 construct: is isolated from human platelet lysates; from tissue
In words: Test (b): GPIIb/IIIa ELISA, inhibition of biotinylated fibrinogen binding. Particulars: purified human platelet GPIIb/IIIa, ELISA; read-out: Test (b): pIC50 (-log(IC50)), 50% inhibition of biotinylated fibrinogen binding to GPIIb/IIIa (converted). The protocol: (i) Preparation of human platelet lysates.
Platelet rich plasma (PRP) is harvested by centrifugation (1000 rpm, 15 mins) of whole blood anticoaoulated with acid citrate dextrose (trisodium citrate 85 mM, citric acid 70 mM, d-glucose 110 mM) 1 part to 6 parts blood. Prostacyclin (PGI2, 1 μM) is added to the PRP before centrifugation (2400 pm, 15 mins) and the resulting pellet is resuspended in modified Tyrodes' solution (NaCl 130 mM, KCl 26 mM, NaHCO3 12 mM, NaH2 PO4 0.5 mM, MgCl2 1 mM, CaCl2 20 mM, Glucose 12 mM, HEPES 5 mM) containing bovine serum albumin 3.5 g/L, PGI2 1 μM and hirudin 0.5 U/ml. The platelet suspension is centrifuged (2400 rpm, 15 mins) and the resultant pellet resuspended in 500 μl of lysis buffer (octyl glucoside 50 mM, HEPES 10 mM, NaCl 150 mM, CaCl2 1 mM, MgCl2 1 mM, PMSF 1 mM, NEM 10 mM, leupeptin 0.1 mM), agitated at 4° C. for 15 minutes then centrifuged at 24000 rpm, 15 mins. The supernatant is stored at 4° C. and the pellet re-suspended in 500 μl of lysis buffer. The centrifugation process is repeated a further 3 tlimes, the pooled supernatants being stored at -70° C.
(ii) Receptor purification.
GP Ilb/Ila is isolated from human platelet lysates using a 2 ml peptide (KYGRGDS) coupled CNBr activated Sepharose affinity column. A 1.5 ml volume of platelet lysate is placed on the column and allowed to stand overnight at 4° C. Buffer (30 mls, octyl gluicoside 25 mM, HEPES 10 mM, NaCl 150 mM, CaCl2 1 mM, MgCl2 1 mM, PMSF 1 mM, NEM 10 mM, leupeptin 0.1 mM) is passed through the column and 2 ml fractions are collected throughout. GPIIb/IIIa is eluted with 12 mls of buffer containing HHLGGAKQAGDV (2 mg/ml, pH 7.5), the column is washed using 4 mls buffer and the remaining GPIIb/IIIa eluted using 12 mls buffer containing GRGDSPG (1 mg/ml pH 7.5). The column is finally washed using 20 mls of buffer and can be used for up to three such preparations. Fractions containing FGPIIb/IIIa are identified using gel electrophoresis and immunoblotting, pooled and stored at -70° C.
96 well microtitre plates are coated with 100 μl purified human platelet fibrinogen receptor (GPIIb/IIIa) diluted in coating buffer (Tris-HCl 20 mM, NaCl 150 mM, CaCl2 1 mM, pH 7.4) and left overnight at 4° C. The plates are washed using washing buffer (Tris-HCl 50 mM, NaCl 100 mM, CaCl2 2 mM, pH 7.4) and non-specific binding, blocked by the addition of 200 μl 2% BSA (2 hours, 30° C.). The plates are washed prior to incubation (2 hours, 30° C.) with 100 μl biotinylated fibrinogen ([…]) containing either vehicle or test compound. The plates are washed, incubated with streptavidin (5 μg/ml, 1 hour, ambient temperature), then washed again before the addition of 100 μl biotinylated horse radish peroxidase (0.1 μg/ml, 1 hour, ambient temperature). The plates are then washed and equal volumes of peroxidase substrate (3, 5, tetramethyl benzidine 0.4 g/l) and H2 O2 (0.02%) are mixed together immediately before addition of 150 μl to each well. Colour is allowed to develop for 10-15 mins before optical densities are read at 650 nm.
The concentration of compound required to cause 50% inhibition of biotinylated fibrinogen binding, is calculated and expressed as a pIC50 (-log(IC50)).
On the technique in general: In an ELISA, binding on a coated surface is turned into a signal by an enzyme label.

T2 sequence (P08514 32-887 limits assumed): as the sequence (P08514 32-887 limits assumed) above
T2 sequence (P08514 891-1039 limits assumed): as the sequence (P08514 891-1039 limits assumed) above
T2 sequence (P05106 27-788): as the sequence (P05106 27-788) above

In the case of `O=C(O)COc1c(Cl)cc(C(=O)CN2CCN(c3ccncc3)CC2)cc1Cl` [Example 123, 4-[2-[4-(4-Pyridyl)piperazin-1-yl]acetyl]-2,6-dichlorophenoxyacetic acid, dihydrochloride], the Kb in assay [1] was 1000 nM. In assay [2], the IC50 is 100 nM.
For `O=C(O)CCCCN1CCN(c2ccncc2)CC1` [Example 196, 5-[(4-Pyridyl)piperazin-1-yl]pentanoic acid, dihydrochloride salt] the same measures were 100000 nM and 6310 nM.
Regarding `O=C(O)CCC1CCN(C(=O)CN2CCN(c3ccncc3)CC2)CC1` [Example 109, 3-[1-[2-[4-(4-Pyridyl)piperazin-1-yl]acetyl]piperidin-4-yl]propanoic acid], the Kb in assay [1] was 316 nM. In assay [2], the IC50 is 631 nM.
For `CCCCS(=O)(=O)NCc1ccc(C(=O)CN2CCN(c3ccncc3)CC2)cc1` [Example 22, N-[4-[2-[4-(4-Pyridyl)piperazin-1-yl]acetyl]phenyl]methyl-1-butanesulphonamide] the same measures were 126 to 200 nM and 3980 nM.
The matching figures for `O=C(O)COc1ccc(OCC2CCN(c3ccncc3)CC2)cc1` [Example 158, 4-[1-(4-Pyridyl)piperidin-4-yl]methoxyphenoxyacetic acid.]: 631 nM and 100 nM.
The matching figures for `COC(=O)C(N)CCOc1ccc(N2CCN(c3ccncc3)CC2)cc1` (racemic) [Example 213, RS Methyl 2-amino-4-[4-[4-(4-pyridyl)piperazin-1-yl]phenoxy]butyrate]: 200 nM and 501 nM.
With `O=C(O)COc1ccc(C(=O)CN2CCN(c3ccncn3)CC2)cc1` [Example 48, 4-[2-[4-(4-Pyrimidinyl)piperazin-1-yl]acetyl]phenoxyacetic acid], the Kb in assay [1] was 10000 nM. The IC50 in assay [2] is 251 nM.
As for `CCCCC(=O)N[C@@H](Cc1ccc(OCCC2CCN(c3ccncc3)CC2)cc1)C(=O)OC` [Example 91, Methyl 2-S-(pentanoylamino)-3-[4-[2-[1-(4-pyridyl)piperidin-4-yl]ethoxy]phenyl]propionate], the Kb in assay [1] was 158 nM. Besides, the IC50 in assay [2] is 200 nM.
On to `O=C(O)c1ccc(C(=O)CN2CCN(c3ccncc3)CC2)cc1` [Example 132, Sodium 4-[2-[4-(4-pyridyl)piperazin-1-yl]acetyl]benzoate], for which the Kb in assay [1] was 63100 nM. For the same molecule, the IC50 in assay [2] is 31600 nM.
For `CCOC(=O)CCCOc1ccc(N2CCN(c3ccncc3)CC2)cc1` [Example 50, Ethyl 4-[4-[4-(4-pyridyl)piperazin-1-yl]phenoxy]butyrate] the same measures were 794 to 1000 nM and above 100000 nM.
As for `CC(C)(C(=O)c1ccc(OCC(=O)O)cc1)N1CCN(c2ccncc2)CC1` [Example 176, 4-[2-[4-(4-Pyridyl)piperazin-1-yl]-2,2-dimethylacetyl]phenoxyacetic acid], in assay [1], the Kb is 200 nM. In addition, the IC50 in assay [2] was 10 nM.
Regarding `CCCCS(=O)(=O)NC(CC(=O)OC)c1ccc(OCC2CCN(c3ccncc3)CC2)cc1` (stereo not shown) [Example 97, Methyl 3-(n-butylsulphonylamino)-3-[4-[1-(4-pyridyl)piperidin-4-yl]-methoxyphenyl]propionate], the Kb in assay [1] is 3980 nM. Besides, the IC50 in assay [2] was 3160 nM.
Take `CCCCS(=O)(=O)N[C@@H](Cc1ccc(OCCCCC2CCN(c3ccncc3)CC2)cc1)C(=O)OC` [Example 83, Methyl 2-S-(butylsulphonylamino)-3-[4-[4-[1-(4-pyridyl)piperidin-4-yl]-butoxy]phenyl]propionate]: in assay [1], the Kb is 39800 nM. For the same molecule, the IC50 in assay [2] was 2000 nM.
For `COC(=O)[C@H]1CC[C@H](Oc2ccc(N3CCN(c4ccncc4)CC3)cc2)CC1` [Example 230, Trans-methyl-4-[4-[4-(4-pyridyl)piperazin-1-yl]phenoxy]cyclohexyl carboxylate] the same measures were 10000 nM and 5010 nM.
Turning to `COC(=O)COc1ccc(CCN2CCN(c3ccncc3)CC2)cc1` [Example 147, Methyl 4-[2-[4-(4-pyridyl)piperazin-1-yl]ethyl]phenoxyacetate], the Kb in assay [1] is 398 nM. Further, in assay [2], the IC50 was 631 nM.
As for `O=C(O)CCNC(=O)c1ccc(N2CCN(c3ccncc3)CC2)nc1` [Example 70, 3-[6-[4-(4-Pyridyl)piperazin-1-yl]pyrid-3-ylcarboxamido]propionic acid], the Kb in assay [1] was 79.4 nM. In assay [2], the IC50 was 15.8 nM.
Turning to `O=C(O)CCCCOc1cccc(N2CCN(c3ccncc3)CC2)c1` [Example 229, 3-[4-(4-Pyridyl)piperazin-1-yl]phenoxypentanoic acid], the Kb in assay [1] was 3980 nM. Besides, the IC50 in assay [2] is 79.4 nM.
On to `CNC(=O)COc1ccc(C(=O)CN2CCN(c3ccncc3)CC2)cc1` [Example 143, 2-[4-[2-[4-(4-Pyridyl)piperazin-1-yl]acetyl]phenoxy]-N-methylacetamide], for which, in assay [1], the Kb is 10000 nM. In addition, the IC50 in assay [2] was 31600 nM.
For the molecule `COC(=O)COc1c(Cl)cc(C(=O)CN2CCN(c3ccncc3)CC2)cc1Cl` [Example 116], the Kb in assay [1] was 2000 nM. Moreover, the IC50 in assay [2] is 2510 nM.
For the molecule `CCCCS(=O)(=O)N[C@@H](Cc1ccc(OCCC2CCN(c3ccncc3)CC2)cc1)C(=O)O` [Example 36, 2-S-(n-Butylsulphonylamino)-3-[4-[2-[1-(4-pyridyl)piperidin-4-yl]ethoxy]phenyl]propionic acid], in assay [1], the Kb was 2 nM. Moreover, the IC50 in assay [2] is 1 nM.
The matching figures for `Cc1cc(N2CCN(CC(=O)c3ccc(OCC(=O)O)cc3)CC2)ccn1` [Example 152, 4-[2-[4-(2-Methylpyrid-4-yl)piperazin-1-yl]acetyl]phenoxyacetic acid, dihydrobromide]: 100 nM and 100 nM.
Turning to `O=C(O)C1CCN(C(=O)CN2CCN(c3ccncc3)CC2)CC1` [Example 28, 1-[2-[4-(4-Pyridyl)piperazin-1-yl]acetyl]piperidin-4-carboxylic acid], the Kb in assay [1] is 20000 nM. Further, in assay [2], the IC50 was 2000 nM.
As for `Cc1ccc(S(=O)(=O)NCCC2CCN(C(=O)CN3CCN(c4ccncc4)CC3)CC2)cc1` [Example 223, N-[2-[1-[2-[4-(4-pyridyl)piperazin-1-yl]acetyl]piperidin-4-ylethyl]-4-methylphenylsulphonamide, dihydrochloride], the Kb in assay [1] is 1000 nM. For the same molecule, in assay [2], the IC50 was 1580 nM.
On to `O=C(O)Cc1ccc(NC(=O)C2CCN(c3ccncc3)CC2)cc1` [Example 169], for which the Kb in assay [1] was 39800 nM. The IC50 in assay [2] was 10000 nM.
As for `O=C(O)CCNC(=O)c1cccc(N2CCN(c3ccncc3)CC2)n1` [Example 74, 3-[6-[4-(4-Pyridyl)piperazin-1-yl]pyrid-2-yl]carboxamidopropionic acid], in assay [1], the Kb is 10000 nM. In addition, the IC50 in assay [2] is 2000 nM.
For `COC(=O)COc1ccc(C(=O)CN2CCN(c3ccncn3)CC2)cc1` [Example 47, Methyl 4-[2-[4-(4-pyrimidinyl)piperazin-1-yl]acetyl]phenoxyacetate], in assay [1], the Kb was 6310 nM. The IC50 in assay [2] was 39800 nM.
